# Assay: Fecal excretion study in rats after oral NS, SF or CNS (LC–MS/MS)
# Assay type: in vivo
# Conditions: rat feces
# Procedure, shortened: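 Fasted male rats (n = 6/group) dosed by oral gavage with NS 60 mg/kg, SF 50 mg/kg or both; feces collected in metabolic cages over intervals to 120 h. Water extracts partitioned into n-BuOH and quantified by negative-ESI LC–MS/MS (MRM); excretion given as % cumulative of ingested dose.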
structure (smiles),measurement,setting,value
CC(C)=CCC[C@](C)(O[C@@H]1O[C@H](CO)[C@@H](O)[C@H](O)[C@H]1O)[C@H]1CC[C@]2(C)[C@@H]1[C@H](O)C[C@@H]1[C@@]3(C)CC[C@H](O)C(C)(C)[C@@H]3[C@@H](O[C@@H]3O[C@H](CO)[C@@H](O)[C@H](O)[C@H]3O)C[C@]12C [ginsenoside Rg1],concentration at 4 h,"male, Sprague Dawley, oral CNS 110 mg/kg, 4 h",1100 ± 1520 ng/mL
same,concentration at 8 h,"male, Sprague Dawley, oral CNS 110 mg/kg, 8 h",1710 ± 54 ng/mL
same,concentration at 12 h,"male, Sprague Dawley, oral CNS 110 mg/kg, 12 h",1110 ± 221 ng/mL
same,concentration at 24 h,"male, Sprague Dawley, oral CNS 110 mg/kg, 24 h",980 ± 138 ng/mL
same,concentration at 36 h,"male, Sprague Dawley, oral CNS 110 mg/kg, 36 h",959 ± 40 ng/mL
same,concentration at 48 h,"male, Sprague Dawley, oral CNS 110 mg/kg, 48 h",943 ± 49 ng/mL
same,concentration at 72 h,"male, Sprague Dawley, oral CNS 110 mg/kg, 72 h",324 ± 249 ng/mL
same,concentration at 96 h,"male, Sprague Dawley, oral CNS 110 mg/kg, 96 h",24 ± 24 ng/mL
same,concentration at 4 h,"male, Sprague Dawley, oral NS 60 mg/kg, 4 h",1510 ± 256 ng/mL
same,concentration at 8 h,"male, Sprague Dawley, oral NS 60 mg/kg, 8 h",473 ± 16 ng/mL
same,concentration at 12 h,"male, Sprague Dawley, oral NS 60 mg/kg, 12 h",1090 ± 88 ng/mL
same,concentration at 24 h,"male, Sprague Dawley, oral NS 60 mg/kg, 24 h",2040 ± 55 ng/mL
same,concentration at 36 h,"male, Sprague Dawley, oral NS 60 mg/kg, 36 h",2020 ± 54 ng/mL
same,concentration at 48 h,"male, Sprague Dawley, oral NS 60 mg/kg, 48 h",2080 ± 47 ng/mL
same,concentration at 72 h,"male, Sprague Dawley, oral NS 60 mg/kg, 72 h",116 ± 8 ng/mL
same,concentration at 96 h,"male, Sprague Dawley, oral NS 60 mg/kg, 96 h",23 ± 1 ng/mL
same,concentration at 120 h,"male, Sprague Dawley, oral NS 60 mg/kg, 120 h",22 ± 2 ng/mL
same,Accumulative excretion amount,"oral CNS 110 mg/kg, 4 h",14.286 ± 20.907 µg
same,Accumulative excretion percentage,"oral CNS 110 mg/kg, 4 h",0.474±0.681%
same,Excretion amount,"oral CNS 110 mg/kg, 4 h",14.286 ± 20.907 µg
same,Accumulative excretion amount,"oral CNS 110 mg/kg, 8 h",39.952 ± 21.244 µg
same,Accumulative excretion percentage,"oral CNS 110 mg/kg, 8 h",1.303±0.695%
same,Accumulative excretion amount,"oral CNS 110 mg/kg, 12 h",56.860 ± 20.559 µg
same,Excretion amount,"oral CNS 110 mg/kg, 12 h",16.908 ± 6.636 µg
same,Accumulative excretion amount,"oral CNS 110 mg/kg, 24 h",71.363 ± 24.096 µg
same,Accumulative excretion percentage,"oral CNS 110 mg/kg, 24 h",2.331±0.796%
same,Excretion amount,"oral CNS 110 mg/kg, 24 h",14.504 ± 4.143 µg
same,Accumulative excretion amount,"oral CNS 110 mg/kg, 36 h",85.729 ± 27.211 µg
same,Accumulative excretion percentage,"oral CNS 110 mg/kg, 36 h",2.802±0.894%
same,Excretion amount,"oral CNS 110 mg/kg, 36 h",14.365 ± 4.335 µg
same,Accumulative excretion amount,"oral CNS 110 mg/kg, 48 h",99.901 ± 30.374 µg
same,Accumulative excretion percentage,"oral CNS 110 mg/kg, 48 h",3.265±0.994%
same,Excretion amount,"oral CNS 110 mg/kg, 48 h",14.173 ± 4.533 µg
same,Accumulative excretion amount,"oral CNS 110 mg/kg, 72 h",105.113 ± 30.466 µg
same,Accumulative excretion percentage,"oral CNS 110 mg/kg, 72 h",3.431±0.996%
same,Excretion amount,"oral CNS 110 mg/kg, 72 h",5.212 ± 4.367 µg
same,Accumulative excretion amount,"oral CNS 110 mg/kg, 96 h",105.509 ± 30.482 µg
same,Accumulative excretion percentage,"oral CNS 110 mg/kg, 96 h",3.441±0.996%
same,Excretion amount,"oral CNS 110 mg/kg, 96 h",0.396 ± 0.402 µg
same,Accumulative excretion amount,"oral CNS 110 mg/kg, 120 h",105.509 ± 30.482 µg
same,Accumulative excretion percentage,"oral CNS 110 mg/kg, 120 h",3.442±0.994%
same,Accumulative excretion amount,"oral NS 60 mg/kg, 4 h",21.063 ± 5.410 µg
same,Accumulative excretion percentage,"oral NS 60 mg/kg, 4 h",0.612±0.145%
same,Excretion amount,"oral NS 60 mg/kg, 4 h",21.063 ± 5.410 µg
same,Accumulative excretion amount,"oral NS 60 mg/kg, 8 h",27.855 ± 7.375 µg
same,Accumulative excretion percentage,"oral NS 60 mg/kg, 8 h",0.798±0.216%
same,Excretion amount,"oral NS 60 mg/kg, 8 h",6.792 ± 2.122 µg
same,Accumulative excretion percentage,"oral NS 60 mg/kg, 12 h",1.244±0.343%
same,Excretion amount,"oral NS 60 mg/kg, 12 h",15.587 ± 4.879 µg
same,Accumulative excretion amount,"oral NS 60 mg/kg, 24 h",72.682 ± 20.662 µg
same,Accumulative excretion percentage,"oral NS 60 mg/kg, 24 h",2.071±0.592%
same,Excretion amount,"oral NS 60 mg/kg, 24 h",29.239 ± 8.754 µg
same,Accumulative excretion amount,"oral NS 60 mg/kg, 36 h",101.659 ± 29.524 µg
same,Accumulative excretion percentage,"oral NS 60 mg/kg, 36 h",2.904±0.845%
same,Excretion amount,"oral NS 60 mg/kg, 36 h",28.977 ± 8.942 µg
same,Accumulative excretion amount,"oral NS 60 mg/kg, 48 h",131.700 ± 39.092 µg
same,Accumulative excretion percentage,"oral NS 60 mg/kg, 48 h",3.751±1.111%
same,Excretion amount,"oral NS 60 mg/kg, 48 h",30.041 ± 9.594 µg
same,Accumulative excretion amount,"oral NS 60 mg/kg, 72 h",133.372 ± 39.629 µg
same,Accumulative excretion percentage,"oral NS 60 mg/kg, 72 h",3.801±1.132%
same,Excretion amount,"oral NS 60 mg/kg, 72 h",1.673 ± 0.554 µg
same,Accumulative excretion percentage,"oral NS 60 mg/kg, 96 h",3.814±1.133%
same,Excretion amount,"oral NS 60 mg/kg, 96 h",0.327 ± 0.104 µg
same,Accumulative excretion percentage,"oral NS 60 mg/kg, 120 h",3.824±1.132%
same,Excretion amount,"oral NS 60 mg/kg, 120 h",0.315 ± 0.110 µg
